Data taken from the CheMixHub viscosity set.

Assay: xn = mol fraction of the nth substance listed

CCC(C)=O + CCCCCCO
viscosity [mPa·s], 100 kPa
Settings | x1 = 0.0791 | x1 = 0.1639 | x1 = 0.2389 | x1 = 0.3481 | x1 = 0.4401 | x1 = 0.5609 | x1 = 0.6516 | x1 = 0.7391 | x1 = 0.8511 | x1 = 0.9382
293.15 K | 3.8 | 2.9 | 2.29 | 1.69 | 1.3 | 0.93 | 0.75 | 0.57 | 0.41 | 0.4
303.15 K | 2.95 | 2.28 | 1.87 | 1.42 | 1.09 | 0.81 | 0.7 | 0.58 | 0.47 | 0.41
313.15 K | 2.28 | 1.8 | 1.49 | 1.15 | 0.92 | 0.72 | 0.6 | 0.51 | 0.42 | 0.37
323.15 K | 1.8 | 1.46 | 1.21 | 0.96 | 0.79 | 0.62 | 0.52 | 0.45 | 0.37 | 0.34

COCCOC + CCCCCCO
101 kPa
Settings | viscosity [mPa·s]
293.15 K, x1 = 0.03644 | 4.556
293.15 K, x1 = 0.07492 | 3.875
293.15 K, x1 = 0.1757 | 2.656
293.15 K, x1 = 0.2488 | 2.089
293.15 K, x1 = 0.3376 | 1.607
293.15 K, x1 = 0.4282 | 1.265
293.15 K, x1 = 0.5085 | 1.055
293.15 K, x1 = 0.5954 | 0.873
293.15 K, x1 = 0.6767 | 0.743
293.15 K, x1 = 0.7648 | 0.633
293.15 K, x1 = 0.8067 | 0.59
293.15 K, x1 = 0.8909 | 0.547
293.15 K, x1 = 0.9608 | 0.506
303.15 K, x1 = 0.03689 | 3.354
303.15 K, x1 = 0.08234 | 2.83
303.15 K, x1 = 0.1774 | 2.045
303.15 K, x1 = 0.2433 | 1.681
303.15 K, x1 = 0.3417 | 1.289
303.15 K, x1 = 0.4228 | 1.068
303.15 K, x1 = 0.5142 | 0.867
303.15 K, x1 = 0.5898 | 0.744
303.15 K, x1 = 0.6726 | 0.638
303.15 K, x1 = 0.7604 | 0.55
303.15 K, x1 = 0.8168 | 0.505
303.15 K, x1 = 0.8829 | 0.478
303.15 K, x1 = 0.9497 | 0.439
313.15 K, x1 = 0.02681 | 2.68
313.15 K, x1 = 0.04032 | 2.555
313.15 K, x1 = 0.07518 | 2.269
313.15 K, x1 = 0.1706 | 1.69
313.15 K, x1 = 0.3414 | 1.091
313.15 K, x1 = 0.4234 | 0.908
313.15 K, x1 = 0.5104 | 0.758
313.15 K, x1 = 0.5912 | 0.651
313.15 K, x1 = 0.6717 | 0.565
313.15 K, x1 = 0.7706 | 0.482
313.15 K, x1 = 0.8138 | 0.467
313.15 K, x1 = 0.8786 | 0.432
313.15 K, x1 = 0.9463 | 0.397
